{
  "source": "patent US6562378B1",
  "about": "“Nutritional supplement for adolescents” (TSAR Health Private Ltd., priority 2002, dated 2003)",
  "assay_type_in_all_cases": "in vivo, human",
  "key": {"[1]": {"tested_on": "blood lymphocytes", "test": "Zinc dose response: lymphocyte response to PHA (thymidine uptake, stimulation index)", "conditions": "13-18 year old adolescents, median (standard deviation)", "method": "(§1) The basic concept underlying the assessment of the most optimum nutrient amounts for a given age group uses the principle of “dose-response curves”. At least four groups of individuals were provided with various amounts of a given nutrient and their immune responses were measured using established and accepted techniques. The amount of a nutrient that gave the best response was considered the optimum amount. Dose response curves were determined for all vitamins and trace elements considered essential for human health, particularly immunity.\nData for the dose response curve for zinc in a group of 13-18 year old adolescents is shown in FIGS. 1 and 2, with the total amount of zinc taken is shown for each group. To determine the magnitude of immune response, an aliquot of blood was withdrawn from each subject in the study, blood lymphocytes were separated, washed and mixed with the mitogen phytohemagglutinin (PHA) in previously determined optimum amount. The optimum amount of PHA used in the experiments was predetermined by a set of dose response curves using lymphocytes of a healthy donor and four different concentrations of PHA. After culture in a sterile environment for 72 hours, the cells were washed and mixed with radioactive thymidine. The same steps were undertaken in a control sample in which only the culture medium was used, not PHA. The cells were washed and radioactivity determined.\n(§2) The ratio of radioactivity in the test samples divided by radioactivity in control samples gave the “stimulation response” shown in FIGS. 1 and 2."}, "[2]": {"tested_on": "Interleukin-2", "test": "Zinc dose response: interleukin-2", "conditions": "adolescents, median (standard deviation)", "method": "as §1, §2"}, "[3]": {"tested_on": "Antibody response", "test": "Zinc dose response: antibody response", "conditions": "adolescents", "method": "as §1, §2"}, "[4]": {"tested_on": "Thymulin activity", "test": "Zinc dose response: thymulin activity", "conditions": "adolescents", "method": "as §1, §2"}, "[5]": {"conditions": "supplemental zinc 11 mg/day plus 7 mg in diet"}, "[6]": {"conditions": "supplemental zinc 28 mg/day plus 7 mg in diet"}, "[7]": {"conditions": "supplemental zinc 55 mg/day plus 7 mg in diet"}},
  "note": "Marks after values point to notes of the source that are not given here.",
  "data": [
    {"molecule": "[Zn]", "note": "[zinc]", "values": [
      {"measurement": "Lymphocyte Response to PHA (stimulation index)", "setting": "[1]; [5]", "value": "77 (8)"},
      {"measurement": "Lymphocyte Response to PHA (stimulation index)", "setting": "[1]; [6]", "value": "51 (6)"},
      {"measurement": "Lymphocyte Response to PHA (stimulation index)", "setting": "[1]; [7]", "value": "40 (7)"},
      {"measurement": "Interleukin-2", "setting": "[2]; [5]", "value": "17 (1.4) units/ml"},
      {"measurement": "Interleukin-2", "setting": "[2]; [6]", "value": "11 (1.5) units/ml"},
      {"measurement": "Interleukin-2", "setting": "[2]; [7]", "value": "9 (1.1) units/ml"},
      {"measurement": "Antibody response (median reciprocal titre)", "setting": "[3]; [5]", "value": 254},
      {"measurement": "Antibody response (median reciprocal titre)", "setting": "[3]; [6]", "value": 136},
      {"measurement": "Antibody response (median reciprocal titre)", "setting": "[3]; [7]", "value": 97},
      {"measurement": "Thymulin activity (median reciprocal titer)", "setting": "[4]; [5]", "value": "114*"},
      {"measurement": "Thymulin activity (median reciprocal titer)", "setting": "[4]; [6]", "value": "123*"},
      {"measurement": "Thymulin activity (median reciprocal titer)", "setting": "[4]; [7]", "value": "106*"}
    ]}
  ]
}
